Data published in patent US20260125347A1, “l,2-SUBSTITUTED 3-OXOPYRAZOLIDINE DERIVATIVES AS PROSTAGLANDIN E2 RECEPTOR 4 (EP4) AGONISTS FOR THE TREATMENT OF GASTROINTESTINAL AND PULMONARY DISEASES” (NXERA PHARMA UK LIMITED, priority 2022, published 2026).

Columns and labels:
[1] = Unidirectional Caco-2 cell permeability assay; assay type: in vitro ADME; details: human, Caco-2, 10 μM, apical pH 6.5, basolateral pH 7.4, 1 hour, 37° C., n=2
Protocol: (§1) Caco-2 cells (ECACC) were seeded onto 24-well Transwell plates at 2×10^5 cells per well and used in confluent monolayers after a 21 day culture at 37° C. under 5% CO2. Test compounds were incubated at 10 μM, 0.2% DMSO final, n=2 in assay buffer (Hanks balanced salt solution supplemented with 25 mM HEPES, adjusted to pH 6.5). Hanks balanced salt solution supplemented with 25 mM HEPES, adjusted to pH 7.4 (0.2% DMSO final) was used for the basolateral chamber (as receiver).
(§2) Incubations were performed at 37° C., with samples removed from both donor and acceptor chambers at T=0 and 1 hour and compound analysed by mass spectrometry (LC-MS/MS) including an analytical internal standard (0.5 μM carbamazepine).
(§3) Apparent permeability (Papp) values are shown in Table 3 and were determined from the relationship:
(§4) Where V is the volume of each Transwell compartment (apical 125 μL, basolateral 600 μL), and concentrations are the relative MS responses for compound (normalized to internal standard) in the donor chamber before incubation and acceptor chamber at the end of the incubation Area=area of cells exposed for drug transfer (0.33 cm^2).
(§5) Lucifer Yellow (LY) was added to the apical buffer in all wells to assess viability of the cell layer. As LY cannot freely permeate lipophilic barriers, a high degree of LY transport indicates poor integrity of the cell layer and wells with a LY Papp>10×10^6 cm/s were rejected.
(§6) Compound recovery from the wells was determined from MS responses (normalized to internal standard) in donor and acceptor chambers at the end of incubation compared to response in the donor chamber pre-incubation.

[2] = target: T1, human EP4 (Homo sapiens, UniProt P35408); assay: cAMP Gs functional assay (HTRF cAMP dynamic-2) in HEK293 cells transfected with EP4 Bacmam virus; assay type: cell-based; details: for Emax: HEK293, HEK293 cells expressing human EP4; for Emax / cAMP human EP4 Emax: positive control 10 μM PGE2; for EC50: HEK293 cells expressing human EP4, 30 mins at 37° C., mid-point of the curve, read-out: cAMP human EP4 pEC50 (converted); for cAMP human EP4 Emax: HEK293 cells expressing human EP4, unit assumed
T1 construct: expressed in transfected cells; host or cells: HEK293 cells transduced with EP4 BacMam virus (virus generated in SF9 cells)
Protocol: Cloning, Baculovirus generation, large scale infection of HEK293 cells and membrane preparation: Human prostaglandin E2 receptor 4 (EP4) was cloned into pBacMam expression vector (GeneScript, UK). Transposition of EP4 DNA was performed using Invitrogen's Bac-to-Bac Baculovirus Expression Systems. P0 baculovirus was generated by transfecting SF9 Cells with bacmid DNA using Cellfectin II transfection reagent (ThermoFisher Scientific, UK). Following P0 generation P1 virus was then generated ready for large scale infection and membrane preparation. HEK293 cells were grown in DMEM (ThermoFisher Scientific, UK), supplemented with 10% heat inactivated fetal bovine serum (FBS). Cells were infected at a seeding density of 3.5 million cells/mL in 500 cm^3 flasks at 5% v/v EP4 Bacman. Expression was carried out over a 36 hr period at 37° C. with 5% CO2. The cells were removed using PBS and a cell scrapper. The cell culture was centrifuged at 2500 RPM for 10 mins at 4° C. The supernatant was then poured off and the pellet stored at −80° C. The pellet was defrosted and re-suspended in 15 mL of homogenising buffer (20 mM HEPES, 10 mM EDTA, pH 7.4). Then homogenised in mechanical homogeniser (VMR) for 10 seconds. The membrane was centrifuged in centrifuge tubes at 40,000 g for 15 mins at 4° C. The supernatant was poured away and re-suspended in 15 mL of homogenising buffer. Homogenised for 20 seconds. The membrane was centrifuged at 40,000 g for 45 mins at 4° C. The membrane was re-suspended in 3 mL of storage buffer (20 mM HEPES, 0.1 mM EDTA, pH 7.4) mixing well. The resulting membranes were then stored at −80° C. cAMP Gs Functional Assay: CAMP production following EP4 receptor activation was determined using the Homogeneous Time-Resolved Fluorescence (HTRF) CAMP dynamic-2 assay (Cisbio, France). HEK293 cells were transfected using a 0.5% EP4 Bacmam virus for 36 hours, before dissociating the cells, and freezing at −150° C. On the day of testing, increasing concentration of test compounds, alongside positive controls (10 μM PGE2 (Tocris, Abingdon, UK)) and negative control (DMSO (Sigma-Aldrich, UK) were added to a ProxiPlate-384 Plus, White 384-shallow well Mircoplate, (PerkinElmer, USA) using the ECHO dispense. Cells were defrosted in a water bath and resuspended in DMEM supplemented with 10% FBS before centrifuging at 1200 RPM for 5 mins to form a pellet. The pellet was resuspended in assay buffer (DMEM+0.5 mM IBMX (Tocris, Abingdon, UK)) to 0.5×10^6 cells/mL. Cell suspension, for a final assay concentration of 5000 cell/well was added using the multidrop to the pre-dispensed assay plate. The plate was then incubated at 37° C. for 30 mins, with 5% CO2. The CAMP production was determined as manufacturer's instructions, before plates were read on a PheraStar fluorescence plate reader (BMG LabTech, Germany).

[3] = system: Caco-2 cells; assay: Unidirectional Caco-2 cell permeability assay; assay type: in vitro ADME; details: 10 μM, apical pH 6.5, basolateral pH 7.4, 1 hour, 37° C., n=2
Protocol: as §1, §2, §3, §4, §5, §6

T1 sequence (P35408 whole entry): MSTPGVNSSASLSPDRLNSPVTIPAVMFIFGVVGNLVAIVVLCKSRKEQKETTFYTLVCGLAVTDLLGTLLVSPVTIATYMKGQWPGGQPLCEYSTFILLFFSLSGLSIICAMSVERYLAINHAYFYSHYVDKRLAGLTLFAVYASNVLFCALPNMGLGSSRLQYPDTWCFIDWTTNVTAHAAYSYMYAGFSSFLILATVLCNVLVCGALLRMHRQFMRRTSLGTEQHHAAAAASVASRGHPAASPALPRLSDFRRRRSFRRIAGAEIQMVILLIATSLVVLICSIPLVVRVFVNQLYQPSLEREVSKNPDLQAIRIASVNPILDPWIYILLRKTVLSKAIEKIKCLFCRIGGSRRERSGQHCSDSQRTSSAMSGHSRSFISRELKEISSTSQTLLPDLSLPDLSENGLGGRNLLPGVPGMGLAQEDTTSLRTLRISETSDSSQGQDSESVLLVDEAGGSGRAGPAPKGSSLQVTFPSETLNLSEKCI

| Structure (SMILES) | Papp A→B at 1 h, 10 μM [1] [×10⁻⁶ cm/s] | Emax [2] [%] | EC50 [2] [nM] | cAMP human EP4 Emax [2] [%] | Caco-2 Mean Papp A-B [3] |
| --- | --- | --- | --- | --- | --- |
| Cc1cc(OS(N)(=O)=O)ccc1-c1cccc(C(O)CCN2CCC(=O)N2CCc2ccc(C(=O)O)cc2)c1 (racemic) [4; racemate] | – | 97 | 6.31 | – | – |
| Cc1cc(C(N)=O)ccc1-c1cccc(C(O)CCN2CCC(=O)N2CCc2cc(F)c(C(=O)O)c(F)c2)c1 (racemic) [5; racemate] | – | 97 | 50.1 | – | – |
| Cc1cc(C(N)=O)ccc1-c1cccc(C(O)CCN2CCC(=O)N2CCc2ccc(-c3nnn[nH]3)cc2)c1 (racemic) [9; racemate] | < 0.1 | 97 | 0.158 | – | – |
| Cc1cc(OS(N)(=O)=O)ccc1-c1cccc(C(O)CCN2CCC(=O)N2CCc2ccc(C(=O)O)cc2)c1 (single isomer, unassigned) [4; isomer 1] | – | 93 | 251 | – | 0.3 10^−6 cm/s |
| Cc1cc(C(N)=O)ccc1-c1cccc(C(O)CCN2CCC(=O)N2CCc2cc(F)c(C(=O)O)c(F)c2)c1 (single isomer, unassigned) [5; isomer 1] | – | 88 | 794 | – | – |
| Cc1cc(C(N)=O)ccc1-c1cccc(C(O)CCN2CCC(=O)N2CCc2cc(F)c(C(=O)O)c(F)c2)c1 (single isomer, unassigned) [5; isomer 2] | < 0.1 | – | 15.8 | 96 | – |
| Cc1cc(S(N)(=O)=O)ccc1-c1cccc(C(O)CCN2CCC(=O)N2CCc2ccc(C(=O)O)c(O)c2)c1 (single isomer, unassigned) [6; isomer 1] | < 0.1 | 97 | 3.98 | – | – |
| Cc1cc(S(N)(=O)=O)ccc1-c1cccc(C(O)CCN2CCC(=O)N2CCc2ccc(C(=O)O)c(O)c2)c1 (single isomer, unassigned) [6; isomer 2] | – | – | 50.1 | 96 | – |
| Cc1cc(C(N)=O)ccc1-c1cccc(C(O)CCN2CCC(=O)N2CCc2ccc(C(=O)O)c(O)c2)c1 (single isomer, unassigned) [7; isomer 1] | < 0.1 | 99 | 3.98 | – | – |
| Cc1cc(C(N)=O)ccc1-c1cccc(C(O)CCN2CCC(=O)N2CCc2ccc(C(=O)O)c(O)c2)c1 (single isomer, unassigned) [7; isomer 2] | – | – | 100 | 97 | <0.1 10^−6 cm/s |
| Cc1cc(S(N)(=O)=O)ccc1-c1cccc(C(O)CCN2CCC(=O)N2CCc2cc(F)c(C(=O)O)c(F)c2)c1 (single isomer, unassigned) [8; isomer 1] | – | 96 | 2510 | – | – |
| Cc1cc(S(N)(=O)=O)ccc1-c1cccc(C(O)CCN2CCC(=O)N2CCc2cc(F)c(C(=O)O)c(F)c2)c1 (single isomer, unassigned) [8; isomer 2] | < 0.3 | – | 31.6 | 99 | – |
| Cc1cc(C(N)=O)ccc1-c1cccc(C(O)CCN2CCC(=O)N2CCc2ccc(-c3nnn[nH]3)cc2)c1 (single isomer, unassigned) [9; isomer 1] | – | 93 | 39.8 | – | – |
| Cc1cc(C(N)=O)ccc1-c1cccc(C(O)CCN2CCC(=O)N2CCc2ccc(-c3nnn[nH]3)cc2)c1 (single isomer, unassigned) [9; isomer 2] | < 0.1 | – | 0.251 | 96 | – |

Further lines, results first:

| Papp A→B at 1 h, 10 μM [1] [×10⁻⁶ cm/s] | Emax [2] [%] | EC50 [2] [nM] | cAMP human EP4 Emax [2] [%] | Caco-2 Mean Papp A-B [3] | Structure (SMILES) |
| --- | --- | --- | --- | --- | --- |
| 0.68 | 97 | 3.98 | – | – | Cc1cc(O)ccc1-c1cccc(C(O)CCN2CCC(=O)N2CCc2ccc(C(=O)O)cc2)c1 (racemic) [1; racemate] |
| – | 99 | 3.16 | – | – | Cc1cc(C(N)=O)ccc1-c1cccc(C(O)CCN2CCC(=O)N2CCc2ccc(C(=O)O)cc2)c1 (racemic) [2; racemate] |
| 0.3 | 97 | 2.51 | – | – | Cc1cc(S(N)(=O)=O)ccc1-c1cccc(C(O)CCN2CCC(=O)N2CCc2ccc(C(=O)O)cc2)c1 (racemic) [3; racemate] |
| 0.86 | 97 | 50.1 | – | – | Cc1cc(O)ccc1-c1cccc(C(O)CCN2CCC(=O)N2CCc2ccc(C(=O)O)cc2)c1 (single isomer, unassigned) [1; isomer 1] |
| – | – | 2 | 99 | – | Cc1cc(O)ccc1-c1cccc(C(O)CCN2CCC(=O)N2CCc2ccc(C(=O)O)cc2)c1 (single isomer, unassigned) [1; isomer 2] |
| < 0.29 | 95 | 158 | – | – | Cc1cc(C(N)=O)ccc1-c1cccc(C(O)CCN2CCC(=O)N2CCc2ccc(C(=O)O)cc2)c1 (single isomer, unassigned) [2; isomer 1] |
| – | – | 0.501 | 98 | <0.47 10^−6 cm/s | Cc1cc(C(N)=O)ccc1-c1cccc(C(O)CCN2CCC(=O)N2CCc2ccc(C(=O)O)cc2)c1 (single isomer, unassigned) [2; isomer 2] |
| – | 93 | 39.8 | – | 0.23 10^−6 cm/s | Cc1cc(S(N)(=O)=O)ccc1-c1cccc(C(O)CCN2CCC(=O)N2CCc2ccc(C(=O)O)cc2)c1 (single isomer, unassigned) [3; isomer 1] |
| – | – | 1.26 | 98 | 0.72 10^−6 cm/s | Cc1cc(S(N)(=O)=O)ccc1-c1cccc(C(O)CCN2CCC(=O)N2CCc2ccc(C(=O)O)cc2)c1 (single isomer, unassigned) [3; isomer 2] |
| – | – | 2.51 | 97 | 0.67 10^−6 cm/s | Cc1cc(OS(N)(=O)=O)ccc1-c1cccc(C(O)CCN2CCC(=O)N2CCc2ccc(C(=O)O)cc2)c1 (single isomer, unassigned) [4; isomer 2] |
